Laboratory results as given in patent US7105541B2, “Naphthyl compounds, intermediates, compositions, and methods of use” (Eli Lilly and Company, priority 1996, dated 2006).
Structures can show the parent of a compound that is named as a salt. Marks after values point to notes of the source that are not given here.

Tested on: ovariectomized rats
Experiment: ovariectomized rat model of postmenopausal hyperlipidemia (serum cholesterol, uterine weight, uterine eosinophil peroxidase)
Format: in vivo
Description: Experimental models of postmenopausal hyperlipidemia are known in the art. Germane to this invention is the ovariectomized rat model which is detailed in U.S. Pat. No. 5,464,845. Data presented in Table 1 show comparative results among ovariectomized rats, rats treated with 17-α-ethynyl estradiol (EE2), and rats treated with certain compounds of this invention. […] This uterine response to estrogen is well recognized in the art.
Not only did the compounds of the present invention reduce serum cholesterol compared to the ovariectomized animals, but the uterine weight was increased to lesser extent than those given EE2. Compared to estrogenic compounds known in the art, the benefit of serum cholesterol reduction while lessening the effect on uterine weight is unusual and desirable.
As expressed in the data below, estrogenicity also was assessed by evaluating the response of eosinophil infiltration into the uterus.
The data presented in Table 1 reflect the response per treatment group.

[1] = ovariectomized rats, 0.01 mg/kg PO
[2] = ovariectomized rats, 0.1 mg/kg PO
[3] = ovariectomized rats, 1.0 mg/kg PO
[4] = ovariectomized rats, 10.0 mg/kg PO
[5] = orally administered at 0.1 mg/kg/day, ovariectomized rats

SMILES: COc1cccc(-c2ccc3cc(OC)ccc3c2Oc2ccc(OCCN3CCCCC3)cc2)c1.Cl [Example 1, 1-[4-[2-(1-piperidinyl)ethoxy]phenoxy]-2-(3-methoxyphenyl)-6-methoxynaphthalene hydrochloride]
- Serum Cholest. % Dec. (decrease versus ovariectomized controls) [1]: 12.1%
- Uterine Eosinophil (Vmax), eosinophil peroxidase [1]: 2.1
- Uterine Weight % Inc (increase versus the ovariectomized controls) [1]: 9.6%
- Serum Cholest. % Dec. (decrease versus ovariectomized controls) [2]: 55.6* %
- Uterine Eosinophil (Vmax), eosinophil peroxidase [2]: 4.8
- Uterine Weight % Inc (increase versus the ovariectomized controls) [2]: 21.9%
- Serum Cholest. % Dec. (decrease versus ovariectomized controls) [3]: 60.5* %
- Uterine Eosinophil (Vmax), eosinophil peroxidase [3]: 4.8
- Uterine Weight % Inc (increase versus the ovariectomized controls) [3]: 35.8* %

SMILES: O=C(c1ccc(OCCN2CCCCC2)cc1)c1c(-c2ccc(O)cc2)sc2cc(O)ccc12 [Raloxifene, [2-(4-hydroxyphenyl)-6-hydroxybenzo[b]thien-3-yl] [4-[2-(1-piperdinyl)ethoxy]phenyl]methanone hydrochloride, reference compound]
- Serum Cholest. % Dec. (decrease versus ovariectomized controls) [2]: 49.3* %
- Uterine Eosinophil (Vmax), eosinophil peroxidase [2]: 5.4
- Uterine Weight % Inc (increase versus the ovariectomized controls) [2]: 23.5%

SMILES: COc1cccc(-c2ccc3ccccc3c2Oc2ccc(OCCN3CCCCC3)cc2)c1.Cl [Example 2, 1-[4-[2-(1-piperidinyl)ethoxy]phenoxy]-2-(3-methoxyphenyl)naphthalene hydrochloride]
- Serum Cholest. % Dec. (decrease versus ovariectomized controls) [2]: 59.6* %
- Uterine Eosinophil (Vmax), eosinophil peroxidase [2]: 4.5
- Uterine Weight % Inc (increase versus the ovariectomized controls) [2]: 42.7* %
- Serum Cholest. % Dec. (decrease versus ovariectomized controls) [3]: 66.2* %
- Uterine Eosinophil (Vmax), eosinophil peroxidase [3]: 7.8
- Uterine Weight % Inc (increase versus the ovariectomized controls) [3]: 43.8* %
- Serum Cholest. % Dec. (decrease versus ovariectomized controls) [4]: 59.0* %
- Uterine Eosinophil (Vmax), eosinophil peroxidase [4]: 4.5
- Uterine Weight % Inc (increase versus the ovariectomized controls) [4]: 37.2* %

SMILES: Cl.Oc1cccc(-c2ccc3cc(O)ccc3c2Oc2ccc(OCCN3CCCCC3)cc2)c1 [Example 3, 1-[4-[2-(1-piperidinyl)ethoxy]phenoxy]-2-(3-hydroxyphenyl)-6-hydroxynaphthalene hydrochloride]
- Serum Cholest. % Dec. (decrease versus ovariectomized controls) [2]: 26.3* %
- Uterine Eosinophil (Vmax), eosinophil peroxidase [2]: 4.8
- Uterine Weight % Inc (increase versus the ovariectomized controls) [2]: 10.4%
- Serum Cholest. % Dec. (decrease versus ovariectomized controls) [3]: 45.7* %
- Uterine Eosinophil (Vmax), eosinophil peroxidase [3]: 3.0
- Uterine Weight % Inc (increase versus the ovariectomized controls) [3]: 15.3%
- Serum Cholest. % Dec. (decrease versus ovariectomized controls) [4]: 22.9%
- Uterine Eosinophil (Vmax), eosinophil peroxidase [4]: 1.2
- Uterine Weight % Inc (increase versus the ovariectomized controls) [4]: 3.9%

SMILES: C#C[C@]1(O)CC[C@H]2[C@@H]3CCc4cc(O)ccc4[C@H]3CC[C@@]21C [EE2, 17-α-Ethynyl-estradiol, reference compound]
- serum cholesterol (in words) [5]: caused a decrease in serum cholesterol
- uterine weight versus ovariectomized animals (in words) [5]: substantially greater than the uterine weight of the ovariectomized animals
- Serum Cholest. % Dec. (decrease versus ovariectomized controls) [2]: 88.1* %
- Uterine Eosinophil (Vmax), eosinophil peroxidase [2]: 174.3*
- Uterine Weight % Inc (increase versus the ovariectomized controls) [2]: 138.8* %
- eosinophil infiltration into the uterus (in words) (stromal layer of ovariectomized rat uteri): substantial and expected increase in eosinophil infiltration
